≈ marks a conversion by molar mass, not a printed value.
Columns and labels:
[1] = test system: LEWIS lung carcinoma; assay: Effect on LEWIS lung carcinoma in BDF1 mice; assay type: in vivo, mouse; settings: for Reduction of tumor size / I.L.S.: intraperitoneally daily for 1-10 days; for I.L.S.: increase in life span; for Antitumor activity: against LEWIS lung carcinoma in mouse; for Life prolongation effects compared with BLM: mouse suffered from LEWIS lung carcinoma
Experimental: LEWIS lung carcinoma (1 mm^3) was transplanted subcutaneously into BDF1 mice. After 24 hours of the transplantation, AN-201(I), (II) and BLM were intraperitoneally injected daily for 1-10 days. Antitumor activity was indicated with a reduction in tumor size or with a increase in life span.

[2] = test system: LEWIS lung carcinoma; settings: reported for the known agent, cited from earlier work
[3] = test system: Bacillus subtilis ATCC 6633; assay: Antimicrobial activity (MIC), broth culture; assay type: cell-based; settings: for MIC: ATCC6633, Bacillus subtilis ATCC 6633, 37° C., 20 hours; for Antimicrobial activity: against Bacillus subtilis ATCC 6633
Experimental: (§1) Two ml portions of M3 -Medium (Bactoantibiotic Medium--Difico, 1.75%, pH 7.2) were placed into test tubes and heated at 120° C. for 10 minutes. Each test strain in Table 1 was inoculated into a batch of culture medium, and the inoculated batches were cultured with shaking at 30° C. for 20 hours to obtain seed culture broths. A 0.05 ml sample of each culture broth was inoculated into 20 ml of M3 -Medium containing […] or (II). The inoculates were cultured at 37° C. for 20 hours with shaking. Thereafter, the optical density of each resultant culture broth at 660 nm was determined, and the minimum inhibition concentration (MIC) of each broth was calculated, and is shown in Table 1.

[4] = test system: Escherichia coli K-12 ATCC 10798; assay: Antimicrobial activity (MIC), broth culture; assay type: cell-based; settings: ATCC10798, 37° C., 20 hours
Experimental: as §1

[5] = test system: Pseudomonas aeruginosa ATCC 10145; assay: Antimicrobial activity (MIC), broth culture; assay type: cell-based; settings: ATCC10145, 37° C., 20 hours
Experimental: as §1

[6] = test system: Sarcina lutia ATCC 93412; assay: Antimicrobial activity (MIC), broth culture; assay type: cell-based; settings: for MIC: Sarcina, ATCC93412, 20 h; for Antimicrobial activity: against Sarchina lutea ATCC 9341
Experimental: as §1

[7] = test system: Staphylococcus aureus FDA 209 P; assay: Antimicrobial activity (MIC), broth culture; assay type: cell-based; settings: for MIC: FDA209, Staphylococcus aureus FDA 209 P, 37° C., 20 hours; for Antimicrobial activity: against Streptococcus aureus FDA 209P
Experimental: as §1

[8] = test system: Escherichia coli MP-2; assay: Antimicrobial activity (MIC), broth culture; assay type: cell-based; settings: MP2, 37° C., 20 hours
Experimental: AN-201(I) and (II) can be assayed by determining anti-microbial activity to E. coli MP-2 (FERM-P 5432) (Agric. Biol. Chem., 43, 371, (1979)), which has permeability for high molecular compounds.
as §1

[9] = test system: mouse fibroblast cell 3T3; assay: Number of injured cells, mouse fibroblast 3T3; assay type: cell-based; set-up: key: -: none of the cells injured; +: half of the cells injured; ++: about 2/3 of the cells injured; +++: almost all of the cells injured; settings: 3 days
Experimental: (§2) MEM Uldecco powder (DAI-NIPPON SEIYAKU) (13.45 g) was dissolved in 1 l of distilled water and 2 ml of 7.5% NaHCO3 solution was added to the solution. Then the solution was filtered through a Millipore filter (pore size: 0.22μ) and supplemented with 100 ml of germ-free blood serum. Into a micro test plate (Falcon), 0.15 ml portions of the culture medium thus prepared were placed. Then a 0.05 ml culture sample of previously cultured mouse fibroblast cell 3T3 or mouse fibroblast cell 3T3 transformed with Semian virus-40 (SV 3T3) was inoculated into each portion of the culture medium. Thereafter, the inoculated media were incubated in a CO2 gas incubator (concentration of CO2 gas: 7.0%) at 37° C. for 24 hours. Into the media AN-201(I) or (II) was added to contain 20 μg/ml, 40 μg/ml, 50 μg/ml or 60 μg/ml, and additional cultivation was carried out for 3 days. Number of injured cell in each medium was counted with an invert microscope using a Thama hematometer.

[10] = test system: mouse fibroblast cell 3T3 transformed with Semian virus-40 (SV 3T3); assay: Number of injured cells, SV 3T3 (transformed with Semian virus-40); assay type: cell-based; set-up: key: -: none of the cells injured; +: half of the cells injured; ++: about 2/3 of the cells injured; +++: almost all of the cells injured; settings: 3 days
Experimental: as §2

[11] = ED50 on normal cells 3T3; assay type: cell-based; settings: mouse; normal 3T3 cells; 2 days; read-out: ED50 33T3(N)
Experimental: (§3) Normal cells, 3T3 and SV-40-transformed 3T3 cells, (SV3T3) were cultured in Eagle's minimal essential medium supplemented with 10% calf serum, 5 μg/ml of cefazoline and 100 μg/ml of streptomycin at the initial cell concentration of 4×10^4 cells/2 cm^2 for 3T3 and 2×10^4 cells/2 cm^2 for SV3T3 at 37° C. in 7% CO2 incubator. After one day of cultivation old medium was removed from tissue culture plate and various concentrations of drug diluted with new medium were added to the Falcon tissue culture plate. After 2 days of cultivation, the cell density was measured and the value of ED50 was determined. N/T ratio was calculated from ED50 value of normal cell, 3T3, to transformed cell, SV3T3.

[12] = test system: SV3T3; assay: ED50 on SV-40-transformed 3T3 cells and selective cytotoxic effect; assay type: cell-based, mouse; settings: for Cytotoxicity compared with BLM: 3T3 cell transformed with SV-40; for Selective cytotoxic effect (N/T ratio): ED50 of normal cell 3T3 to transformed cell SV3T3, 2880 min; for IC50: Mus musculus, SV3T3, 48 h, SV-40-transformed 3T3 cells, 2 days, read-out: ED50 SV3T3(T); for Antitumor activity (selective cytotoxicity): against 3T3 cell transformed with SV-40
Experimental: as §3

[13] = test system: mouse leukemia L 1210 cells; assay: Effect on L 1210 cell (relative multiplication number); assay type: cell-based; settings: L1210, 120 h, 5 days, 0 μg/ml = 100; for activity at 10 µg/mL: 10 μg/ml; for activity at 20 µg/mL: 20 μg/ml; for activity at 40 µg/mL: 40 μg/ml; for activity at 50 µg/mL: 50 μg/ml; for activity at 60 µg/mL: 60 μg/ml
Experimental: A 10.28 g sample of RPMI 1640 powder medium (DAI-NIPPON SEIYAKU) was dissolved into 1.0 liter distilled water and 1.0 g NaHCO3 was added to it. Then the solution was filtered through a Millipore filter (pore size: 0.22μ) and supplemented with 100 ml of germ-free blood serum. One ml portions of the culture medium thus prepared were placed into Falcon Multi Well aseptically. Then a 0.05 ml culture sample of mouse leukemia L 1210 cells previously cultured was inoculated into each batch of the culture medium, and a definite amount of purified AN-201(I) or (II) dissolved in the same medium was added simultaneously to the culture medium. Thereafter, the inoculated media were incubated in a CO2 gas incubator (concentration of CO2 gas: 7.0%) at […]. After 5 days incubation, the numbers of multiplied cells were counted under a microscope and the relative multiplication numbers obtained are shown in Table 4.

bleomycin [BLM, reference compound]
Reduction of tumor size ([1]; 5 mg/kg): 52-60%
Reduction of tumor size ([1]; 10 mg/kg): 65-80%
I.L.S. ([1]; 5 mg/kg): 100-110%
I.L.S. ([1]; 10 mg/kg): 119-124%
Antitumor activity (reported) ([2]; LEWIS lung carcinoma in mouse): notable antitumor activity
Chemotherapeutic coefficient (reported) [2]: very high

CC(=O)NC(CCCNC(=O)CC(N)CCCNC(=O)CC(N)CCCN)CC(=O)NC1C(N=C2NC3C(=O)NCC(O)C3N2)OC(CO)C(OC(N)=O)C1O (centres unmarked) [AN-201(II)]
MIC [3]: 1.5 µg/mL (≈ 1.87 µM)
Antimicrobial activity [3]: positive
MIC [4]: > 50 µg/mL
MIC [5]: > 50 µg/mL
MIC [6]: 5 µg/mL (≈ 6.24 µM)
Antimicrobial activity [6]: positive
MIC [7]: 2 µg/mL (≈ 2.5 µM)
Antimicrobial activity [7]: positive
MIC [8]: 4 µg/mL (≈ 4.99 µM)
Number of Injured Cell ([9]; 20 μg/ml): -
Number of Injured Cell ([9]; 40 μg/ml): -
Number of Injured Cell ([9]; 50 μg/ml): +
Number of Injured Cell ([9]; 60 μg/ml): ++
Number of Injured Cell ([10]; 20 μg/ml): -
Number of Injured Cell ([10]; 40 μg/ml): +
Number of Injured Cell ([10]; 50 μg/ml): +++
Number of Injured Cell ([10]; 60 μg/ml): +++
CC50 at 48 h [11]: 50 µg/mL (≈ 62.4 µM)
Cytotoxicity compared with BLM [12]: more strongly and selectively cytotoxic
Selective cytotoxic effect (N/T ratio) [12]: 3.3
IC50 [12]: 15 µg/mL (≈ 18.7 µM)
Antitumor activity (selective cytotoxicity) [12]: cytotoxic selectively
activity at 10 µg/mL [13]: 100%
activity at 20 µg/mL [13]: 80%
activity at 40 µg/mL [13]: 25%
activity at 50 µg/mL [13]: 0%
activity at 60 µg/mL [13]: 0%
Reduction of tumor size ([1]; 1 mg/kg): 50-57%
Reduction of tumor size ([1]; 3 mg/kg): 54-60%
Reduction of tumor size ([1]; 9 mg/kg): 74-85%
Antitumor activity [1]: positive
I.L.S. ([1]; 1 mg/kg): 101-110%
I.L.S. ([1]; 3 mg/kg): 121-130%
I.L.S. ([1]; 9 mg/kg): 124-135%
Life prolongation effects compared with BLM [1]: greater life prolongation effects

CC(=O)NC(CCCNC(=O)CC(N)CCCN)CC(=O)NC1C(N=C2NC3C(=O)NCC(O)C3N2)OC(CO)C(OC(N)=O)C1O (centres unmarked) [AN-201(I)]
MIC [3]: 2.7 µg/mL (≈ 4.01 µM)
Antimicrobial activity [3]: positive
MIC [4]: > 50 µg/mL
MIC [5]: > 50 µg/mL
MIC [6]: 5 µg/mL (≈ 7.43 µM)
Antimicrobial activity [6]: positive
MIC [7]: 2 µg/mL (≈ 2.97 µM)
Antimicrobial activity [7]: positive
MIC [8]: 20 µg/mL (≈ 29.7 µM)
Number of Injured Cell ([9]; 20 μg/ml): -
Number of Injured Cell ([9]; 40 μg/ml): -
Number of Injured Cell ([9]; 50 μg/ml): +
Number of Injured Cell ([9]; 60 μg/ml): ++
Number of Injured Cell ([10]; 20 μg/ml): -
Number of Injured Cell ([10]; 40 μg/ml): +
Number of Injured Cell ([10]; 50 μg/ml): +++
Number of Injured Cell ([10]; 60 μg/ml): +++
CC50 at 48 h [11]: 55 µg/mL (≈ 81.8 µM)
Cytotoxicity compared with BLM [12]: more strongly and selectively cytotoxic
Selective cytotoxic effect (N/T ratio) [12]: 2.2
IC50 [12]: 25 µg/mL (≈ 37.2 µM)
Antitumor activity (selective cytotoxicity) [12]: cytotoxic selectively
activity at 10 µg/mL [13]: 100%
activity at 20 µg/mL [13]: 80%
activity at 40 µg/mL [13]: 30%
activity at 50 µg/mL [13]: 0%
activity at 60 µg/mL [13]: 0%
Reduction of tumor size ([1]; 9 mg/kg): 45-50%
Reduction of tumor size ([1]; 18 mg/kg): 50-65%
Antitumor activity [1]: positive
I.L.S. ([1]; 9 mg/kg): 114-120%
I.L.S. ([1]; 18 mg/kg): 120-125%
Life prolongation effects compared with BLM [1]: greater life prolongation effects

Source: US4560748A, “Streptothricin-group compounds” (Ajinomoto Company Incorporated, priority 1982, dated 1985)
